The values below come from US20110065675A1, “AZO DYE RELATED SMALL MOLECULE MODULATORS OF PROTEIN-PROTEIN INTERACTIONS” (University of Miami, priority 2008, published 2011).

Assay [1] has as its target P2 (ATP/UTP purine receptor). Particulars: read-out: IC50, P2 antagonist; cited from earlier work.
Assay [2] has as its target T1, mouse CD40/CD154 (mCD40:mCD154) (Mus musculus, UniProt P27548).
T1 construct: (FLAG-tagged) mCD154 (recombinant mouse CD40L, soluble, Alexis Biochemicals); purchased R&D Systems (mCD40/Fc); Alexis Biochemicals (mCD154)
T1 sequence (P27548 112-260 limits assumed): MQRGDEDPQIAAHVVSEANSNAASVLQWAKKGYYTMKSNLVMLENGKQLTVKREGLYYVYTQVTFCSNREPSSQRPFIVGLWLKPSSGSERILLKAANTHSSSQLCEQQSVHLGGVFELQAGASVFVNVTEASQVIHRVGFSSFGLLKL
Briefly: Murine CD40/CD154 binding inhibition assay. The conditions noted are these: for IC50: cell-free binding, read-out: Mouse CD40/CD154 IC50. The procedure:
Compounds of interest were also tested in a murine (mouse) model similar to the human one with murine CD40 and CD154 replacing the corresponding human proteins. This serves as additional confirmation of the in vitro inhibitory potential of these compounds, and it was considered important because mouse models are likely to be used as the first in vivo tests. […] The experimental setup used was similar to the one described above, but using mCD40 (recombinant mouse CD40/TNFRSF5/Fc Chimera, soluble, R&D Systems) and (FLAG-tagged) mCD154 (recombinant mouse CD40L, soluble, Alexis Biochemicals). This time, however, a higher concentration of CD154 ligand had to be employed to obtain adequate signals, and after a number of calibration tests, mCD40 coating at 0.3125 μg/mL with mCD154 (mCD40L) at 1.1212 μg/mL range was selected to be used to screen the inhibiting activity of various compounds.
The experiments confirmed that the murine anti-CD154 monoclonal antibody (Taconic, MR1) was active in this system at the expected concentration (˜1 nM range), the human antibody was not, and vice versa, the human mAb was active in the human system, but not in the mouse system. The mouse system provided a similar range of activity with some (up to approximately five-fold) changes in activities compared to that seen in the human system (FIG. 2) (Table 1).

For the next assay, the target named is T2, human CD40/CD154 (Homo sapiens, UniProt P29965).
T2 construct: CD154 (soluble human, FLAG-tagged, recombinant from Alexis Biochemicals; MW=18 kDa); purchased Alexis Biochemicals
T2 sequence (P29965 113-261 limits assumed): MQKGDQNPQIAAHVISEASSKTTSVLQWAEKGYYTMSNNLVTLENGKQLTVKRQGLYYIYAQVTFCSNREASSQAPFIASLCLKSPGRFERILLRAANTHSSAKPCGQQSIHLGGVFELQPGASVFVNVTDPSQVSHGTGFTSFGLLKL
Briefly: Human CD40/CD154 binding inhibition assay (cell-free, plate-based). The protocol:
A 96-well plate-based cell-free in vitro binding inhibition assay, which is a modification of an assay described in U.S. Pat. No. 7,173,046, incorporated by reference in its entirety, has been developed and used for activity screening. Briefly, CD40 is coated at a preselected concentration, and binding of (FLAG-tagged) CD154 is measured by reacting with secondary antibody and using TMB liquid substrate system as a substrate for horseradish peroxidase for reading at 450 nm. The detailed procedure is as follows: Microtiter plates (Nunc F MaxiSorp) were coated with […] of CD40: Fc (human:Fc human, recombinant from Alexis Biochemicals; MW=54 kDa) diluted in PBS pH 7.2 at a preselected concentration of 0.3125 μg/mL. Plates were covered with plate sealer and stored overnight at 4° C. The liquid was removed from the plates and blotted dry. Plates were blocked by washing once with approx. 300 μL/well of Blocking Solution (PBS pH 7.2, 0.05% Tween-20, 1% BSA) and incubated with the same solution for 1 hour at room temperature (RT) or at 4° C. overnight. Coated plates were washed three times with Washing Solution (PBS pH 7.4, 0.05% Tween-20) and blotted dry. A preselected dilution of CD154 (soluble human, FLAG-tagged, recombinant from Alexis Biochemicals; MW=18 kDa) of 0.0087500875 μg/mL range was prepared in 100 mM HEPES, 0.005% BSA pH 7.2. Binding was carried out by adding 100 μL of this CD154 dilution/well and incubating at RT in the presence of test compounds (or blank as negative control). After incubation, the plates were washed with Washing Solution and blotted dry. Bound CD154 was detected with 200 μL/well of secondary antibody mAb ANTI-FLAG M2—Peroxidase Conjugate (anti-FLAG M2-peroxidase HRP conjugate; Sigma-Aldrich) diluted 1:40,000 in Washing Solution. After incubation, the plates were washed and blotted dry. 200 μL/well of the HR-Peroxidase substrate TMB (3,3′,5,5′-tetramethylbenzidine; Sigma-Aldrich) were added, and the plates were incubated for approximately 30 minutes in the dark. The reaction was stopped with 0.5 M H2SO4 and read at 450 nm. All conditions were tested in at least three independent experiments in duplicate or triplicate per plates. Data were normalized and fitted with standard log inhibitor vs. response models using GraphPad Prism 5 to establish median inhibitory ICso values.
A representative result using the monoclonal anti-human CD154 antibody (R&D Systems, monoclonal anti-human CD40 ligand/TNFSF5 antibody, MAB617; MW≈150 kDa used) as positive control is shown in FIG. 1.
Binding inhibition assays with this system provided consistent and well-reproducible results, as FIG. 1 (bottom), focusing on the concentration range of their activities, illustrates. […] The effect of DMSO, which was used as the diluting solvent for the non-water-soluble compounds and is a standard solvent in HTS assays, on the integrity of the assay has been examined. DMSO concentrations above 10% interfere with the binding assay, but concentrations below 3% have no effect. […] Because 5 or 10 mM stock solutions were used, all IC50 values below 250 μM can be considered as unaffected by DMSO.

For another assay, the target named is human TNF-R1/TNFα (Homo sapiens, UniProt P01375+P19438). Briefly: Specificity test: human TNF-R1/TNFα binding inhibition assay. The conditions noted are these: for IC50: cell-free binding, read-out: Human TNFR1/TNFα IC50. The text has this:
A main concern for the therapeutic applicability of these compounds and of small molecule PPI inhibitors in general is related to their ability to achieve some acceptable degree of selectivity/specificity for the PPI of interest. To identify compounds that show acceptable specificity for the CD40/CD154 system, their ability to inhibit the TNF-R1/TNF-α PPI was investigated since this is particularly relevant as CD154 is part of the TNF superfamily. The experimental setup used was very similar to the one described in Example 1, but using plate-coated TNF-R1 and TNF-α as ligand (with a corresponding anti-TNF-α mAb as positive control). The concentration of TNF-R1 and TNF-α used were 0.6 μg/mL and 0.02 μg/mL, respectively.

Where [3] appears, read: cell-free binding, read-out: Human CD40/CD154 IC50.

SMILES strings stand for the structures. Read-outs that look alike come from different tables or passages of the source. Some results are limits rather than exact numbers.

Sequence of human TNF-R1/TNFα (P01375 77-233 limits assumed): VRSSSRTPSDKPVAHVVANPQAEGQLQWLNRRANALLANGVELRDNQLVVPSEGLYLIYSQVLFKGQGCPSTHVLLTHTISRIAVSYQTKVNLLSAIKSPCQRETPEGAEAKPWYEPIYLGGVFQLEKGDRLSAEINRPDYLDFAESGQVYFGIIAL
Sequence of human TNF-R1/TNFα (P19438 30-211 limits assumed): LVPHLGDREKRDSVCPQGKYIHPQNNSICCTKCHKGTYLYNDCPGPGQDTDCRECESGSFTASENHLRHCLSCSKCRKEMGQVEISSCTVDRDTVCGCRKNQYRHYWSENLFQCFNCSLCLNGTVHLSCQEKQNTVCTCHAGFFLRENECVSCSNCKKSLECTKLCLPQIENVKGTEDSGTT

On to `Cc1ccc(C(=O)Nc2ccc(S(=O)(=O)O)c3cc(S(=O)(=O)O)cc(S(=O)(=O)O)c23)cc1NC(=O)c1cccc(NC(=O)Nc2cccc(C(=O)Nc3cc(C(=O)Nc4ccc(S(=O)(=O)O)c5cc(S(=O)(=O)O)cc(S(=O)(=O)O)c45)ccc3C)c2)c1` [Suramin, reference compound], for which the IC50 was 5 to 10 µM in assay [1]; 4.5 µM in assay [2]; 14.6 µM at human CD40/CD154 (setting [3]); 14 µM on human CD40/CD154 (cell-free binding, read-out: Human CD40/CD154 IC50 (ug/mL) (converted)); 486 µM at human TNF-R1/TNFα.
On to `O=C([O-])C1=NN(c2ccc(S(=O)(=O)[O-])cc2)C(=O)C1N=Nc1ccc(S(=O)(=O)[O-])cc1.[Na+].[Na+].[Na+]` (stereo not shown) [Tartrazine (FD&C yellow 5), Tartrazine, reference compound], for which the IC50 (in assay [2]; at human CD40/CD154 (setting [3]); at human TNF-R1/TNFα) was more than 2000 µM throughout. In assay [2] (log of IC50, cell-free binding), the “Mouse CD40/CD154 log IC50” value is more than −3.0. Besides, the “Activity in the human CD40/CD154 binding assay” value on human CD40/CD154 is “inactive”. For the same compound, at human CD40/CD154 (cell-free binding), the “Human CD40/CD154 IC50” value was more than 2000 mg/L. Further, the “Human CD40/CD154 log IC50” value at human CD40/CD154 (log of IC50, cell-free binding) was more than −3.0. Moreover, the “Human TNFR1/TNFα log IC50” value at human TNF-R1/TNFα (log of IC50, cell-free binding) was more than −3.0.
